According to PubChem BioAssay (NCI):
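In this assay, cells in 96-well plates receive the compound at five concentrations for 48 hours. Endpoints are linearly interpolated between the surrounding concentrations. Here, GI50 denotes the concentration required for 50% inhibition of growth. TGI: total growth inhibition.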

Tests used:
Assay in all cases: growth of human tumour cells (NCI), 48 h
786-0 renal = test system: 786-0 renal
A498 renal = test system: A498 renal
A549 NSCLC = test system: A549 NSCLC
ACHN renal = test system: ACHN renal
BT-549 breast = test system: BT-549 breast
CAKI-1 renal = test system: CAKI-1 renal
CCRF-CEM leukemia = test system: CCRF-CEM leukemia
COLO 205 colon = test system: COLO 205 colon
DU-145 prostate = test system: DU-145 prostate
EKVX NSCLC = test system: EKVX NSCLC
HCC-2998 colon = test system: HCC-2998 colon
HCT-116 colon = test system: HCT-116 colon
HCT-15 colon = test system: HCT-15 colon
HL-60(TB) leukemia = test system: HL-60(TB) leukemia
HOP-62 NSCLC = test system: HOP-62 NSCLC
HOP-92 NSCLC = test system: HOP-92 NSCLC
HS 578T breast = test system: HS 578T breast
HT29 colon = test system: HT29 colon
IGROV1 ovarian = test system: IGROV1 ovarian
K-562 leukemia = test system: K-562 leukemia
KM12 colon = test system: KM12 colon
LOX IMVI melanoma = test system: LOX IMVI melanoma
M14 melanoma = test system: M14 melanoma
MALME-3M melanoma = test system: MALME-3M melanoma
MDA-MB-231 breast = test system: MDA-MB-231 breast
MDA-MB-435 = test system: MDA-MB-435
NCI-H226 lung = test system: NCI-H226 lung
NCI-H460 lung = test system: NCI-H460 lung
NCI/ADR-RES ovarian = test system: NCI/ADR-RES ovarian
OVCAR-4 ovarian = test system: OVCAR-4 ovarian
OVCAR-5 ovarian = test system: OVCAR-5 ovarian
OVCAR-8 ovarian = test system: OVCAR-8 ovarian
PC-3 prostate = test system: PC-3 prostate
RPMI-8226 leukemia = test system: RPMI-8226 leukemia
RXF 393 renal = test system: RXF 393 renal
SF-268 CNS = test system: SF-268 CNS
SF-295 CNS = test system: SF-295 CNS
SF-539 CNS = test system: SF-539 CNS
SK-MEL-2 melanoma = test system: SK-MEL-2 melanoma
SK-MEL-28 melanoma = test system: SK-MEL-28 melanoma
SK-MEL-5 melanoma = test system: SK-MEL-5 melanoma
SK-OV-3 ovarian = test system: SK-OV-3 ovarian
SN12C renal = test system: SN12C renal
SNB-19 CNS = test system: SNB-19 CNS
SNB-75 CNS = test system: SNB-75 CNS
SR leukemia = test system: SR leukemia
SW-620 colon = test system: SW-620 colon
T-47D breast = test system: T-47D breast
TK-10 renal = test system: TK-10 renal
U251 CNS = test system: U251 CNS
UACC-257 melanoma = test system: UACC-257 melanoma
UACC-62 melanoma = test system: UACC-62 melanoma
UO-31 renal = test system: UO-31 renal

COc1ccc(N2CCN(C3=C(Cl)C(=O)c4ncccc4C3=O)CC2)cc1
GI50 (786-0 renal): 15.9 µM | TGI (786-0 renal): 29.5 µM | GI50 (A498 renal): 15 µM | TGI (A498 renal): 29.1 µM | GI50 (A549 NSCLC): 15.9 µM | TGI (A549 NSCLC): 35.2 µM | GI50 (ACHN renal): 1.78 µM | TGI (ACHN renal): 3.37 µM | GI50 (BT-549 breast): 4.23 µM | TGI (BT-549 breast): 14.1 µM | GI50 (CAKI-1 renal): 4.72 µM | TGI (CAKI-1 renal): 17.1 µM | GI50 (CCRF-CEM leukemia): 2.8 µM | TGI (CCRF-CEM leukemia): > 100 µM | GI50 (COLO 205 colon): 2.01 µM | TGI (COLO 205 colon): 4.04 µM | GI50 (DU-145 prostate): 5.93 µM | TGI (DU-145 prostate): 18.4 µM | GI50 (EKVX NSCLC): 2.45 µM | TGI (EKVX NSCLC): 7.05 µM | GI50 (HCC-2998 colon): 11.7 µM | TGI (HCC-2998 colon): 26.5 µM | GI50 (HCT-116 colon): 1.92 µM | TGI (HCT-116 colon): 3.85 µM | GI50 (HCT-15 colon): 2.66 µM | TGI (HCT-15 colon): 11.3 µM | GI50 (HL-60(TB) leukemia): 1.48 µM | TGI (HL-60(TB) leukemia): 4.46 µM | GI50 (HOP-62 NSCLC): 19.1 µM | TGI (HOP-62 NSCLC): 38 µM | GI50 (HOP-92 NSCLC): 1.49 µM | TGI (HOP-92 NSCLC): 3.03 µM | GI50 (HS 578T breast): 14.1 µM | TGI (HS 578T breast): 39 µM | GI50 (HT29 colon): 4.71 µM | TGI (HT29 colon): 18.2 µM | GI50 (IGROV1 ovarian): 3.25 µM | TGI (IGROV1 ovarian): 11.6 µM | GI50 (K-562 leukemia): 3.03 µM | TGI (K-562 leukemia): 12 µM | GI50 (KM12 colon): 18.4 µM | TGI (KM12 colon): 34.7 µM | GI50 (LOX IMVI melanoma): 1.75 µM | TGI (LOX IMVI melanoma): 3.56 µM | GI50 (M14 melanoma): 3.04 µM | TGI (M14 melanoma): 10.5 µM | GI50 (MALME-3M melanoma): 2.06 µM | TGI (MALME-3M melanoma): 6.05 µM | GI50 (MDA-MB-231 breast): 1.66 µM | TGI (MDA-MB-231 breast): 3.26 µM | GI50 (MDA-MB-435): 1.94 µM | TGI (MDA-MB-435): 3.68 µM | GI50 (NCI-H226 lung): 16.2 µM | TGI (NCI-H226 lung): 35.9 µM | GI50 (NCI-H460 lung): 5.86 µM | TGI (NCI-H460 lung): 19.9 µM | GI50 (NCI/ADR-RES ovarian): 6.74 µM | TGI (NCI/ADR-RES ovarian): 28.6 µM | GI50 (OVCAR-4 ovarian): 2.18 µM | TGI (OVCAR-4 ovarian): 5.36 µM | GI50 (OVCAR-5 ovarian): 16.2 µM | TGI (OVCAR-5 ovarian): 30.3 µM | GI50 (OVCAR-8 ovarian): 4.87 µM | TGI (OVCAR-8 ovarian): 17.9 µM | GI50 (PC-3 prostate): 13.8 µM | TGI (PC-3 prostate): 29.1 µM | GI50 (RPMI-8226 leukemia): 2.69 µM | TGI (RPMI-8226 leukemia): 7.32 µM | GI50 (RXF 393 renal): 2.61 µM | TGI (RXF 393 renal): 8.37 µM | GI50 (SF-268 CNS): 19.2 µM | TGI (SF-268 CNS): 50.1 µM | GI50 (SF-295 CNS): 13.9 µM | TGI (SF-295 CNS): 28.3 µM | GI50 (SF-539 CNS): 7.66 µM | TGI (SF-539 CNS): 21.2 µM | GI50 (SK-MEL-2 melanoma): 12 µM | TGI (SK-MEL-2 melanoma): 25.4 µM | GI50 (SK-MEL-28 melanoma): 3.8 µM | TGI (SK-MEL-28 melanoma): 13.2 µM | GI50 (SK-MEL-5 melanoma): 12.8 µM | TGI (SK-MEL-5 melanoma): 25.5 µM | GI50 (SK-OV-3 ovarian): 12.2 µM | TGI (SK-OV-3 ovarian): 25.2 µM | GI50 (SN12C renal): 11.1 µM | TGI (SN12C renal): 25.6 µM | GI50 (SNB-19 CNS): 16.9 µM | TGI (SNB-19 CNS): 32.9 µM | GI50 (SNB-75 CNS): 14.3 µM | TGI (SNB-75 CNS): 28.8 µM | GI50 (SR leukemia): 2.27 µM | TGI (SR leukemia): 6.59 µM | GI50 (SW-620 colon): 1.63 µM | TGI (SW-620 colon): 3.79 µM | GI50 (T-47D breast): 1.78 µM | TGI (T-47D breast): 4.26 µM | GI50 (TK-10 renal): 4.11 µM | TGI (TK-10 renal): 11.6 µM | GI50 (U251 CNS): 10.7 µM | TGI (U251 CNS): 24.1 µM | GI50 (UACC-257 melanoma): 2.86 µM | TGI (UACC-257 melanoma): 8.41 µM | GI50 (UACC-62 melanoma): 5.99 µM | TGI (UACC-62 melanoma): 19.3 µM | GI50 (UO-31 renal): 2 µM | TGI (UO-31 renal): 6.83 µM
